# Details: not given
SMILES,log10 vapour pressure (mmHg),melting point [°C],boiling point [°C],log10 Henry constant (atm·m³/mol),log10 Koc (L/kg),ready biodegradability,log10 Koa
CO/N=C(/C(=O)OC)c1ccccc1COc1ccccc1C,-7.76,99,,,,,
COc1cc(OC)n2nc(S(=O)(=O)Nc3c(Cl)ccc(C)c3Cl)nc2n1,,211,,,,,
COc1cc2c(cc1O)C(Cc1ccc(OC)c(OC)c1)N(C)CC2 (stereo unspecified),,127,,,,,
S=C=Nc1cccc(Cl)c1,,,250,,,,
C=CCc1ccc(OC)cc1,,,216,,,,
CCC(CC)(CC)CC,0.863,-33.1,146,,,,
CC(C)(C)I,,-38.2,100,,,,
CC(=O)N(C(C)=O)c1ccc(/N=N/c2ccccc2C)cc1C,,75,,,,,
O=C(O)Cc1ccco1,,68.5,,,,,
Clc1ccc2c(c1)oc1c(Cl)c(Cl)cc(Cl)c12,,190,,,,,
c1ccc(Nc2ccccn2)nc1,,90.5,308,,,,
FC1(F)C(F)(F)C(F)(F)C2(F)C(F)(F)C(F)(F)C(F)(F)C(F)(F)C2(F)C1(F)F (stereo unspecified),,-10,,,,,
Cc1cnc(C)c(C)c1,,,184,,,,
O=C(O)c1cccc([N+](=O)[O-])c1Cl,,184,,,,,
CCCCC(CC)CNC1CCCCC1 (stereo unspecified),,,270,,,,
CC(C)(C)S,2.26,-0.5,64,,,,
CCCCNC(=O)n1c(NC(=O)OC)nc2ccccc21,-8.43,,,-11.3,2.71,,
O=c1[nH]c2ccccc2n1CCCN1CCC(n2c(=O)[nH]c3cc(Cl)ccc32)CC1,,242,,,,,
CCCCCC(=O)O,-1.36,-3,205,-6.12,1.46,readily biodegradable,
COc1ccccc1CO,,,249,,,,
CNC[C@H](O)c1ccc(O)c(O)c1,,212,,,,,
CCC(C)CCC(C)(C)C (stereo unspecified),,,151,,,,
O=C(O)Cc1c(-c2ccccc2)c(-c2ccccc2)nn1-c1ccccc1,,200,,,,,
CC=C(Cl)CCl,,,130,,,,

SMILES,log10 vapour pressure (mmHg),melting point [°C],boiling point [°C],log10 Henry constant (atm·m³/mol),log10 Koc (L/kg),ready biodegradability,log10 Koa
Nc1cccc(Cl)c1C(=O)O,,159,,,,,
Cc1cc(C)c([N+](=O)[O-])cc1C,,71,265,,,,
COC(C)C,2.78,,30.7,,,,
OCCCCO,-1.98,20.4,235,,,readily biodegradable,
O=C(NN=Cc1ccc([N+](=O)[O-])o1)c1ccc(O)cc1,,298,,,,,
CCOC(=O)c1ccccc1[N+](=O)[O-],,30,275,,,,
CCOCc1ccccc1,-0.0339,,186,,,,
CC1CCCCCC1,,,134,,,,
CC[B]CC,,-56.3,112,,,,
CCC(C)O[N+](=O)[O-] (stereo unspecified),,,124,,,,
C=CCc1ccccc1O,,-6,220,,,readily biodegradable,
Brc1c(Br)c(Br)c2c(c1Br)Oc1c(Br)c(Br)c(Br)c(Br)c1O2,-12.5,376,,,,,
O=C(Cl)c1c(F)c(F)c(F)c(F)c1F,,,158,,,,
BrC[C@@H]1CCCO1,,,170,,,,
CC(C)[C@@H]1CC[C@@H](C)[C@H](O)C1,,,218,,,,
Clc1cc2c(Cl)ccc(Cl)c2cc1Cl,,,,,,,8.13
O=C(O)c1ccc(Cl)cc1Cl,,164,,,,not readily biodegradable,
N#Cc1cc(F)c(F)c(F)c1F,,,164,,,,
COc1cc2c(c3oc(=O)c4c(c13)CCC4=O)[C@@H]1CCO[C@@H]1O2,,288,,,,,
CC(=O)c1c(C)c[nH]c1C,,138,,,,,
C#CC(C)(O)CC (stereo unspecified),0.72,30.5,120,,,readily biodegradable,
CC(Cl)(Cl)C(Cl)Cl,,,153,,,,
FC(Cl)(Cl)C(Cl)(Cl)Cl,,101,135,,,,
C/C=C/C=C/CCCCCCCO,-3.29,32,,,,,

# Same assay, conditions: fish
SMILES,log10 BCF,log10 biotransformation half-life (days)
CCCCCCCCCCCC(=O)O,2.4,
Cc1cc2ccccc2c2ccccc12,,0.12

# Reference: the OPERA property sets (Mansouri et al. 2018)
